Reference: patent US8093378B2, “Crystallization method for intermediates of carbapenem antibiotics” (Kaneka Corporation, priority 2006, dated 2012)

How the values were obtained:
[1] = Particle size distribution of crystals by sieving (JIS Z 8801 / JIS Z 8901); format: physicochemical; conditions: for ratio of weight of crystals, particle size <177 μm: mesh size <177 μm; for ratio of weight of crystals, particle size <350, ≧177 μm: mesh size <350, ≧177 μm; for ratio of weight of crystals, particle size ≧350 μm: mesh size ≧350 μm
Description: Arbitrarily, 3.0 g of Compound (1) in a crystalline form obtained in each of Example 2, Comparative example 2, Example 3 and Comparative example 3 was taken out. Test sieves with a mesh size in accordance with the Japanese Industrial Standard (JIS Z 8801), having a mesh size of 500 μm, 420 μm, 350 μm, 250 μm, 177 μm, 149 μm, 125 μm, 74 μm or 44 μm and an inner diameter of 8 cm, were used, and were shaken by hand in accordance with the measurement procedure of the standard sieving method specified in JIS Z 8901. The results obtained by comparing the particle size distributions between the “crystal of Example 2” and the “crystal of Comparative example 2”, and between the “crystal of Example 3” and the “crystal of Comparative example 3” are shown in Table 3.

[2] = Bulk density of crystals passing a 500 μm sieve (tapped); format: physicochemical; conditions: crystals with particle size 500 μm or less; weight of crystals/volume of crystals after tapping
Description: Arbitrarily, 3.0 g of Compound (1) in a crystalline form obtained in each of Example 1, Comparative example 1, Example 2 and Comparative example 2 was taken out, and was passed through a test sieve with a diameter of 8 cm and a mesh size of 500 μm in accordance with the Japanese Industrial Standard (JIS Z 8801), and the bulk density of the crystals passing through the sieve was measured. […] The bulk density was calculated by using “weight of crystals”/“volume of crystals” as a calculation method.

[3] = Storage stability of the crystals at 60° C. (remaining activity by HPLC); format: physicochemical
Description: About 500 mg of Compound (1) in a crystalline form obtained in each of Example 1 and Comparative example 1 was weighed out in a glass bottle, and the bottle was tightly sealed. Then, the bottle was left in a constant-temperature room at 60° C. for 8 days.

[4] = stored at 40° C. for 20 days, crystalline form; cited from earlier work
[5] = Day 1 (set as 100%), crystal in sealed glass bottle at 60° C.
[6] = Day 4, crystal in sealed glass bottle at 60° C.
[7] = Day 6, crystal in sealed glass bottle at 60° C.
[8] = Day 8, crystal in sealed glass bottle at 60° C.

| Structure (SMILES) | ratio of weight of crystals, particle size <177 μm [1] | ratio of weight of crystals, particle size <350, ≧177 μm [1] | ratio of weight of crystals, particle size ≧350 μm [1] | Bulk Density [2] | remaining activity [3, 5] | remaining activity [3, 6] | remaining activity [3, 7] | remaining activity [3, 8] | decomposition ([3]; storage at 60° C., 8 days, crystal obtained by the same method as Patent document 4) | decomposition on storage [4] |
| --- | --- | --- | --- | --- | --- | --- | --- | --- | --- | --- |
| C[C@@H](O)[C@H]1C(=O)N2C(C(=O)OCc3ccc([N+](=O)[O-])cc3)=C(OP(=O)(Oc3ccccc3)Oc3ccccc3)[C@H](C)[C@H]12 [Example 3, p-nitrobenzyl (4R,5R,6S)-1-aza-3-diphenyloxyphosphoryloxy-6-[(1R)-1-hydroxyethyl]-4-methyl-7-oxobicyclo[3.2.0]hept-2-en-2-carboxylate] | 18% | 36% | 46% |  |  |  |  |  |  |  |
| C[C@@H](O)[C@H]1C(=O)N2C(C(=O)OCc3ccc([N+](=O)[O-])cc3)=C(OP(=O)(Oc3ccccc3)Oc3ccccc3)[C@H](C)[C@H]12 [Comparative example 2, p-nitrobenzyl (4R,5R,6S)-1-aza-3-diphenyloxyphosphoryloxy-6-[(1R)-1-hydroxyethyl]-4-methyl-7-oxobicyclo[3.2.0]hept-2-en-2-carboxylate, reference compound] | 34% | 47% | 19% | 0.36 |  |  |  |  |  |  |
| C[C@@H](O)[C@H]1C(=O)N2C(C(=O)OCc3ccc([N+](=O)[O-])cc3)=C(OP(=O)(Oc3ccccc3)Oc3ccccc3)[C@H](C)[C@H]12 [Comparative Example 1, p-nitrobenzyl (4R,5R,6S)-1-aza-3-diphenyloxyphosphoryloxy-6-[(1R)-1-hydroxyethyl]-4-methyl-7-oxobicyclo[3.2.0]hept-2-en-2-carboxylate, reference compound] |  |  |  | 0.37 | 100% | 96% | 87% | 80% |  |  |
| C[C@@H](O)[C@H]1C(=O)N2C(C(=O)OCc3ccc([N+](=O)[O-])cc3)=C(OP(=O)(Oc3ccccc3)Oc3ccccc3)[C@H](C)[C@H]12 [Comparative example 3, p-nitrobenzyl (4R,5R,6S)-1-aza-3-diphenyloxyphosphoryloxy-6-[(1R)-1-hydroxyethyl]-4-methyl-7-oxobicyclo[3.2.0]hept-2-en-2-carboxylate, reference compound] | 25% | 45% | 30% |  |  |  |  |  |  |  |
| C[C@@H](O)[C@H]1C(=O)N2C(C(=O)OCc3ccc([N+](=O)[O-])cc3)=C(OP(=O)(Oc3ccccc3)Oc3ccccc3)[C@H](C)[C@H]12 [Example 2, p-nitrobenzyl (4R,5R,6S)-1-aza-3-diphenyloxyphosphoryloxy-6-[(1R)-1-hydroxyethyl]-4-methyl-7-oxobicyclo[3.2.0]hept-2-en-2-carboxylate] | 10% | 41% | 49% | 0.40 |  |  |  |  |  |  |
| C[C@@H](O)[C@H]1C(=O)N2C(C(=O)OCc3ccc([N+](=O)[O-])cc3)=C(OP(=O)(Oc3ccccc3)Oc3ccccc3)[C@H](C)[C@H]12 [Example 1, p-nitrobenzyl (4R,5R,6S)-1-aza-3-diphenyloxyphosphoryloxy-6-[(1R)-1-hydroxyethyl]-4-methyl-7-oxobicyclo[3.2.0]hept-2-en-2-carboxylate] |  |  |  | 0.43 | 100% | 97% | 92% | 88% |  |  |
| C[C@@H](O)[C@H]1C(=O)N2C(C(=O)OCc3ccc([N+](=O)[O-])cc3)=C(OP(=O)(Oc3ccccc3)Oc3ccccc3)[C@H](C)[C@H]12 [Compound (1), p-nitrobenzyl (4R,5R,6S)-1-aza-3-diphenyloxyphosphoryloxy-6-[(1R)-1-hydroxyethyl]-4-methyl-7-oxobicyclo[3.2.0]hept-2-en-2-carboxylate] |  |  |  |  |  |  |  |  | 20% | not decomposed |
